Measured values: US20240391875A1, “ISOQUINOLINONES AND QUINOLINONES AS MODULATORS OF POLRMT” (Pretzel Therapeutics, Inc., priority 2021, published 2024)

Molecular target: POLRMT (Homo sapiens, UniProt O00411)
Experiment: homogeneous TR-FRET assay of mitochondrial transcription (inhibition of POLRMT)
Assay type: biochemical
Conditions: isoquinolinone compounds (Table 1)
Description: The inhibitory activity of the compounds of the present invention against POLRMT were determined by assays based on Bergbrede, T., et al., “An adaptable high-throughput technology enabling the identification of specific transcription modulators,” SLAC Discov., 22, 378-386 (2017).
The ability of some compounds of the present invention to inhibit POLRMT were determined in a homogeneous TR-FRET Assay using high-throughput screening in a 384-well plate format. This method is used to monitor the activity of mitochondrial transcription through measurement of its product, a 407 bp long RNA transcript. Detection of the product is facilitated by hybridization of two DNA-oligonucleotide probes to specific and adjacent sequences within the RNA product sequence. Upon annealing of the probes, two fluorophores are coupled directly to an acceptor nucleotide probe (ATTO647, 5′), or introduced via a coupled streptavidin with a biotinylated donor nucleotide probe (Europium cryptate) that is brought into sufficient proximity to serve as a fluorescence-donor-acceptor pair. Thus, a FRET signal at 665 nm is generated upon excitation at 340 nm.
Proteins used as transcription factors (POLRMT: NP_005026.3, TFAM: NP_003192.1, TFB2M: NP_071761.1) are diluted from their stocks to working concentrations of 1 μM, 20 μM and 4 μM respectively, in a dilution buffer containing 20 mM Tris-HCl (pH 8.0), 200 mM NaCl, 10% (v/v) glycerol, 1 mM Dithiothreitol (DTT), 0.5 mM EDTA.
DNA template is a pUC18 plasmid with the mitochondrial light strand promotor sequence (1-477) cloned between HindIII and BamHI sites. The DNA template is restriction linearized proximal to the promotor 3′-end (pUC-LSP).
The reaction mixture (10 uL) containing 7.5 nM POLRMT, 15 nM of TFB2M, 30 nM of TFAM, 0.5 nM of DNA template and 500 μM nucleotide triphosphate mix (NTPs) in a reaction buffer (containing 10 mM Tris-HCl (pH 7.5), 10 mM MgCl2, 40 mM NaCl, 10 mM DTT, 0.005% (w/v) Tween-20, 160 units/ml Rnase inhibitor and 0.1 mg/mL BSA) are dispensed to compounds in microplates, using a Thermo Multidrop® dispenser, and incubated at 37° C. in a VWR INCU-Line incubator for 60 minutes after mixing. No nucleotide triphosphate mix is added to negative control samples. Microplates with compounds to be tested in the assay are prepared from 10 mM compound stocks in 100% DMSO, equal amounts of DMSO without any compound are added to positive control and negative control samples.
During the incubation, a mix of the detection reagents is prepared in a buffer such that the enzymatic reaction is terminated due to chelating of Mg-ions and increased ionic strength, containing 50 mM Tris-HCl (pH 7.5), 700 mM NaCl, 20 mM EDTA, and 0.010% (w/v) Tween-20. Europium-streptavidin is pre-incubated with a 200-fold molar excess of a random sequence oligonucleotide to block unspecific binding of oligo, for two hours at ambient temperature in the dark. Afterwards, the blocked Europium-streptavidin is kept on ice until use.
At the end of the enzymatic reaction time, 5 μL detection oligo mix in the detection buffer is added, and assay plates are mixed and kept at ambient temperature for one hour, protected from light. The concentration of the Acceptor nucleotide oligo (e.g., ATTO647N-5′-[…]-3′) and Donor nucleotide oligo (e.g., bio-5′-AACACATCTCT(-bio)GCCAAACCCCA-bio-3′) in each assay well is 1 nM, and 3 nM, respectively.
After incubation with oligo mix, 5 μL of pre-blocked Europium-streptavidin reagent is dispensed to each assay well, assay plates are again mixed and kept at ambient temperature for one hour, protected from light.
The generated signal is measured with BMG Pherastar microtiter plate reader with a TRF light unit, using excitation at 340 nm, an integration time of 200 μs, and a delay time of 100 μs, before detection at 620 nm and 665 nm. The ratio of donor- and acceptor-fluorescence is used as a measure of the generated transcript product (i.e. enzymatic activity).

Chain of POLRMT (O00411 42-1230): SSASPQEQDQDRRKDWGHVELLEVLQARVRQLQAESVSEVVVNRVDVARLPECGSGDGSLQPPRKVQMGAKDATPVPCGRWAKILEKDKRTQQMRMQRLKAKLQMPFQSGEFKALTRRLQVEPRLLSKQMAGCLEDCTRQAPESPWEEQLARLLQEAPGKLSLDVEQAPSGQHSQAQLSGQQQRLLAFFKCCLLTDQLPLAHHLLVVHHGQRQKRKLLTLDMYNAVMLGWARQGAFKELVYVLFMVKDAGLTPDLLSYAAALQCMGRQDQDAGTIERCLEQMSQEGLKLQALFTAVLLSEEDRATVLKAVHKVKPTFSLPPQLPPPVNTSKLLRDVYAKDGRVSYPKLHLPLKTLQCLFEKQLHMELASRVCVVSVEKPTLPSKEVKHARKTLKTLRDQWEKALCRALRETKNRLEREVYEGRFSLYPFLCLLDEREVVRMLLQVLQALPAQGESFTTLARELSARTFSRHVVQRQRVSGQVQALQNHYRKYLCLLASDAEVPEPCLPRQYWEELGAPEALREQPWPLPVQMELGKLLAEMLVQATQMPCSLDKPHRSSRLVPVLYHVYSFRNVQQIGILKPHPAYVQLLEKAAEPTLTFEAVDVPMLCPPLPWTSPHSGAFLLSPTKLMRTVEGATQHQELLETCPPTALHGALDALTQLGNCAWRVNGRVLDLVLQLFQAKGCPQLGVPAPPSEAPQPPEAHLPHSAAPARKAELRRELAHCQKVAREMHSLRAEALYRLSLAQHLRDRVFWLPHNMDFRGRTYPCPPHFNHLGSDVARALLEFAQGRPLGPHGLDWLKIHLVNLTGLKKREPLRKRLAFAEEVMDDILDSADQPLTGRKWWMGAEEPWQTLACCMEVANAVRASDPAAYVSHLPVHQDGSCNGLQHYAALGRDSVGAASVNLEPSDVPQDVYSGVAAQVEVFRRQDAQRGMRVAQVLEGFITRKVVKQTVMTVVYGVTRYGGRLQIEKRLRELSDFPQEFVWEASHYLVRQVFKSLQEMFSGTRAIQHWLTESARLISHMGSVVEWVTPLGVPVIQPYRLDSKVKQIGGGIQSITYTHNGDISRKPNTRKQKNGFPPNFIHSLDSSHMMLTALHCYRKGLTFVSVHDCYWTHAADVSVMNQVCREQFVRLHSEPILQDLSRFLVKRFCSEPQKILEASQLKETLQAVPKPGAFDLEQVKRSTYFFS

Compound | IC50 [nM]
Cc1ccccc1-c1c[nH]c(=O)c2cc(OCC(F)(F)F)ccc12 [Example 65, 4-(o-tolyl)-7-(2,2,2-trifluoroethoxy)isoquinolin-1(2H)-one] | 30
Cc1ccccc1-c1c[nH]c(=O)c2cc(N(C)CC(N)=O)ccc12 [Example 66, 2-(methyl(1-oxo-4-(o-tolyl)-1,2-dihydroisoquinolin-7-yl)amino)acetamide] | 5000
Cc1ccccc1-c1c[nH]c(=O)c2cc(NC(C)C(N)=O)ccc12 (stereo not shown) [Example 67, 2-((1-oxo-4-(o-tolyl)-1,2-dihydroisoquinolin-7-yl)amino)propanamide] | 12000
Cc1ccccc1-c1c[nH]c(=O)c2cc(NC(C)C(N)=O)ccc12 (stereo not shown) [Example 68] | 11000
Cc1ccccc1-c1c[nH]c(=O)c2cc(NC(C)C(N)=O)ccc12 (stereo not shown) [Example 69] | 12000
Cc1ccccc1-c1c[nH]c(=O)c2cc(NCC(N)=O)ccc12 [Example 70, 2-((1-oxo-4-(o-tolyl)-1,2-dihydroisoquinolin-7-yl)amino)acetamide] | 8000
Cc1ccccc1-c1c[nH]c(=O)c2cc(OC(C)C(N)=O)ccc12 (stereo not shown) [Example 71, 2-((1-oxo-4-(o-tolyl)-1,2-dihydroisoquinolin-7-yl)oxy)propanamide] | 1000
Cc1ccccc1-c1c[nH]c(=O)c2cc(O[C@H](C)C(=O)N3CCC(F)(F)CC3)ccc12 [Example 80, (R)-7-((1-(4,4-difluoropiperidin-1-yl)-1-oxopropan-2-yl)oxy)-4-(o-tolyl)isoquinolin-1(2H)-one] | 40
Cc1ccccc1-c1c[nH]c(=O)c2cc(O[C@H](C)C(=O)N3CCCC(F)(F)C3)ccc12 [Example 81, (R)-7-((1-(3,3-difluoropiperidin-1-yl)-1-oxopropan-2-yl)oxy)-4-(o-tolyl)isoquinolin-1(2H)-one] | 30
C[C@@H](Oc1ccc2c(-c3ccc(F)cc3Cl)c[nH]c(=O)c2c1)C(=O)N1CCC[C@H](C(N)=O)C1 [Example 82, (S)-1-((R)-2-((4-(2-chloro-4-fluorophenyl)-1-oxo-1,2-dihydroisoquinolin-7-yl)oxy)propanoyl)piperidine-3-carboxamide] | 90
Cc1cc(F)ccc1-c1c[nH]c(=O)c2cc(OCC#N)ccc12 [Example 83, 2-((4-(4-fluoro-2-methylphenyl)-1-oxo-1,2-dihydroisoquinolin-7-yl)oxy)acetonitrile] | 400
Cc1ccccc1-c1c[nH]c(=O)c2cc(O[C@H](C)C(=O)N3C4CCCC3CC4)ccc12 [Example 86, 7-(((2R)-1-(8-azabicyclo[3.2.1]octan-8-yl)-1-oxopropan-2-yl)oxy)-4-(o-tolyl)isoquinolin-1(2H)-one] | 20
C[C@@H](Oc1ccc2c(-c3ccc(F)cc3Cl)c[nH]c(=O)c2c1)C(=O)N1CCC[C@H](C#N)C1 [Example 87, (S)-1-((R)-2-((4-(2-chloro-4-fluorophenyl)-1-oxo-1,2-dihydroisoquinolin-7-yl)oxy)propanoyl)piperidine-3-carbonitrile] | 200
Cc1ccccc1-c1c[nH]c(=O)c2cc(O[C@H](C)C(=O)O)ccc12 [Example 88, (R)-2-((1-oxo-4-(o-tolyl)-1,2-dihydroisoquinolin-7-yl)oxy)propanoic acid] | 400
Cc1ccc(-c2c[nH]c(=O)c3cc(OCC#N)ccc23)c(Cl)c1 [Example 89, 2-((4-(2-chloro-4-methylphenyl)-1-oxo-1,2-dihydroisoquinolin-7-yl)oxy)acetonitrile] | 300
C[C@@H](Oc1ccc2c(-c3ccc(F)cc3Cl)c[nH]c(=O)c2c1)C(=O)O [Example 90, (R)-2-((4-(2-chloro-4-fluorophenyl)-1-oxo-1,2-dihydroisoquinolin-7-yl)oxy)propanoic acid] | 1000
C[C@@H](Oc1ccc2c(-c3ccc(F)cc3Cl)c[nH]c(=O)c2c1)C(=O)N1C2CCCC1CC2 [Example 93, 7-(((2R)-1-(8-azabicyclo[3.2.1]octan-8-yl)-1-oxopropan-2-yl)oxy)-4-(2-chloro-4-fluorophenyl)isoquinolin-1(2H)-one] | 30

The remaining compounds from weak to strong by IC50, led by results:

IC50 [nM] | Compound
300 | C[C@@H](Oc1ccc2c(-c3ccc(F)cc3Cl)c[nH]c(=O)c2c1)C(=O)N1CCC(F)(F)CC1 [Example 91, (R)-4-(2-chloro-4-fluorophenyl)-7-((1-(4,4-difluoropiperidin-1-yl)-1-oxopropan-2-yl)oxy)isoquinolin-1(2H)-one]
100 | C[C@@H]1CN(C(=O)[C@@H](C)Oc2ccc3c(-c4ccc(F)cc4Cl)c[nH]c(=O)c3c2)C[C@H](C)O1 [Example 100, 4-(2-chloro-4-fluorophenyl)-7-(((R)-1-((2S,6R)-2,6-dimethylmorpholino)-1-oxopropan-2-yl)oxy)isoquinolin-1(2H)-one]
80 | C[C@@H](Oc1ccc2c(-c3ccc(F)cc3Cl)c[nH]c(=O)c2c1)C(=O)N1CCCC(F)(F)C1 [Example 84, (R)-4-(2-chloro-4-fluorophenyl)-7-((1-(3,3-difluoropiperidin-1-yl)-1-oxopropan-2-yl)oxy)isoquinolin-1(2H)-one]
80 | C[C@@H](Oc1ccc2c(-c3ccc(F)cc3Cl)c[nH]c(=O)c2c1)C(=O)N1C2CCC1COC2 [Example 92, 7-(((2R)-1-(3-oxa-8-azabicyclo[3.2.1]octan-8-yl)-1-oxopropan-2-yl)oxy)-4-(2-chloro-4-fluorophenyl)isoquinolin-1(2H)-one]
70 | Cc1ccccc1-c1c[nH]c(=O)c2cc(O[C@H](C)C(=O)N3CCC[C@H](C(N)=O)C3)ccc12 [Example 94, (S)-1-((R)-2-((1-oxo-4-(o-tolyl)-1,2-dihydroisoquinolin-7-yl)oxy)propanoyl)piperidine-3-carboxamide]
50 | C[C@@H](Oc1ccc2c(-c3ccc(F)cc3Cl)c[nH]c(=O)c2c1)C(=O)N1CCC(C(=O)O)CC1 [Example 64, (R)-1-(2-((4-(2-chloro-4-fluorophenyl)-1-oxo-1,2-dihydroisoquinolin-7-yl)oxy)propanoyl)piperidine-4-carboxylic acid]
50 | C[C@@H](Oc1ccc2c(-c3ccc(F)cc3Cl)c[nH]c(=O)c2c1)C(=O)N1CCOCC1 [Example 79, (R)-4-(2-chloro-4-fluorophenyl)-7-((1-morpholino-1-oxopropan-2-yl)oxy)isoquinolin-1(2H)-one]
30 | Cc1ccccc1-c1c[nH]c(=O)c2cc(O[C@H](C)C(=O)N3CCC[C@H](C#N)C3)ccc12 [Example 77, (S)-1-((R)-2-((1-oxo-4-(o-tolyl)-1,2-dihydroisoquinolin-7-yl)oxy)propanoyl)piperidine-3-carbonitrile]
30 | Cc1ccccc1-c1c[nH]c(=O)c2cc(O[C@H](C)C(=O)N3CCOCC3)ccc12 [Example 78, (R)-7-((1-morpholino-1-oxopropan-2-yl)oxy)-4-(o-tolyl)isoquinolin-1(2H)-one]
20 | Cc1ccccc1-c1c[nH]c(=O)c2cc(O[C@H](C)C(=O)N3C4CCC3COC4)ccc12 [Example 85, 7-(((2R)-1-(3-oxa-8-azabicyclo[3.2.1]octan-8-yl)-1-oxopropan-2-yl)oxy)-4-(o-tolyl)isoquinolin-1(2H)-one]
20 | Cc1cccc(C)c1-c1c[nH]c(=O)c2cc(OCC#N)ccc12 [Example 99, 2-((4-(2,6-dimethylphenyl)-1-oxo-1,2-dihydroisoquinolin-7-yl)oxy)acetonitrile]
